Results as given in ChEMBL document CHEMBL1926587, “Molecular insights into human monoamine oxidase (MAO) inhibition by 1,4-naphthoquinone: evidences for menadione (vitamin K3) acting as a competitive and reversible inhibitor of MAO” (Bioorg Med Chem, 2011).
Active and inactive are the calls of the source. The rule behind the calls is not given here.

How the values were obtained:
[1] = target: T1, Amine oxidase [flavin-containing] B (Homo sapiens, UniProt P27338); assay: Competitive inhibition of human MAO-B
T1 sequence (P27338 whole entry): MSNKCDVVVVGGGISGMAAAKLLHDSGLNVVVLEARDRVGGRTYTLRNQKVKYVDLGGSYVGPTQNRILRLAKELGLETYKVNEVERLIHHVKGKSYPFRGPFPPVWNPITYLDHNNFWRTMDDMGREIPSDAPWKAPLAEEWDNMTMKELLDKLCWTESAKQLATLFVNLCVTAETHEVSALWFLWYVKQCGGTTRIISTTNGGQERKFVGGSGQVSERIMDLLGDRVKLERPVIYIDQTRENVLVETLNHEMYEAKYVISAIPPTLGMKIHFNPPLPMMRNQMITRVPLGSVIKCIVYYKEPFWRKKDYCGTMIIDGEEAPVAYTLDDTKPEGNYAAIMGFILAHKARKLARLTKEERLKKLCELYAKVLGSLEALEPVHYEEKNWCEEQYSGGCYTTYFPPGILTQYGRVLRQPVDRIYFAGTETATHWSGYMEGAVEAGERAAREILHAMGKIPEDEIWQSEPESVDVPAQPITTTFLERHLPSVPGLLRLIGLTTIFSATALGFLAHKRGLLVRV

[2] = target: T2, Amine oxidase [flavin-containing] A (Homo sapiens, UniProt P21397); assay: Competitive inhibition of human MAO-A
T2 sequence (P21397 whole entry): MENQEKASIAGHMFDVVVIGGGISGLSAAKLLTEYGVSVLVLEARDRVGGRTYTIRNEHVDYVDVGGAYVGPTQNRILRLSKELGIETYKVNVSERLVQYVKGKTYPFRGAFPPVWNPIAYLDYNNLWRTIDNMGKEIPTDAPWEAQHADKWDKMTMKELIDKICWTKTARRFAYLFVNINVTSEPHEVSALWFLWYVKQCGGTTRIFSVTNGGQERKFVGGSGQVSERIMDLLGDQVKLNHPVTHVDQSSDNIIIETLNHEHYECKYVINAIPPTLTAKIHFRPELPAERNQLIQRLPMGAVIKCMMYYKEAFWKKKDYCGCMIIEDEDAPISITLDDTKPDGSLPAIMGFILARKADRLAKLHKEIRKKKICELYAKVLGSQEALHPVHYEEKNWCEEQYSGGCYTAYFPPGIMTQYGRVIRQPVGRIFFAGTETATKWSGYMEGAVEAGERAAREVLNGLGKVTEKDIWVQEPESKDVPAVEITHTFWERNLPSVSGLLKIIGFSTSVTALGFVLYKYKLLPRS

Homo sapiens = organism: Homo sapiens; assay: Selectivity ratio of Ki for human recombinant MAO-A to Ki for human recombinant MAO-B
Rattus norvegicus = organism: Rattus norvegicus; assay: Selectivity ratio of Ki for rat MAO-A to Ki for rat MAO-B
[3] = target: T1, Amine oxidase [flavin-containing] B; assay: Competitive inhibition of human recombinant MAO-B expressed in baculovirus infected insect cells using benzylamine as substrate by Lineweaver-Burk plot analysis
[4] = target: T2, Amine oxidase [flavin-containing] A; assay: Noncompetitive inhibition of human recombinant MAO-A expressed in baculovirus infected insect cells using p-tyramine as substrate by Lineweaver-Burk plot analysis
[5] = target: T1, Amine oxidase [flavin-containing] B; assay: Reversible inhibition of human recombinant MAO-B expressed in baculovirus infected insect cells assessed as decrease in Km at 5 uM preincubated for 20 mins measured 3 hrs post dialysis by Lineweaver-Burk plot analysis
[6] = target: T2, Amine oxidase [flavin-containing] A; assay: Reversible inhibition of human recombinant MAO-A expressed in baculovirus infected insect cells assessed as increase in Vmax at 5 uM preincubated for 20 mins measured 3 hrs post dialysis by Lineweaver-Burk plot analysis
[7] = target: T1, Amine oxidase [flavin-containing] B; assay: Competitive inhibition of human recombinant MAO-B expressed in baculovirus infected insect cells assessed as reduction in fluorescence at 20 to 25 uM by spectrofluorimetry relative to control; set-up: scale not given: the % may be the effect or the level left
[8] = target: T2, Amine oxidase [flavin-containing] A; assay: Noncompetitive inhibition of human recombinant MAO-A expressed in baculovirus infected insect cells assessed as reduction in Vmax at 5 uM by Lineweaver-Burk plot analysis
[9] = target: T1, Amine oxidase [flavin-containing] B; assay: Competitive inhibition of human recombinant MAO-B expressed in baculovirus infected insect cells assessed as increase in Km at 5 uM by Lineweaver-Burk plot analysis
Armoracia rusticana = assay: Inhibition of horseradish peroxidase at 100 uM after 45 mins by amplex red assay in the presence of hydrogen peroxide
[10] = target: T2, Amine oxidase [flavin-containing] A; assay: Reversible inhibition of human recombinant MAO-A expressed in baculovirus infected insect cells assessed as decrease in Km at 5 uM preincubated for 20 mins measured 3 hrs post dialysis by Lineweaver-Burk plot analysis
[11] = target: T1, Amine oxidase [flavin-containing] B; assay: Competitive inhibition of human recombinant MAO-B expressed in baculovirus infected insect cells assessed as reduction in fluorescence at 10 to 12 uM by spectrofluorimetry relative to control; set-up: scale not given: the % may be the effect or the level left
[12] = target: T2, Amine oxidase [flavin-containing] A; assay: Competitive inhibition of human recombinant MAO-A expressed in baculovirus infected insect cells using p-tyramine as substrate by Lineweaver-Burk plot analysis
[13] = target: T2, Amine oxidase [flavin-containing] A; assay: Competitive inhibition of human recombinant MAO-A expressed in baculovirus infected insect cells assessed as increase in Km at 5 uM by Lineweaver-Burk plot analysis

SMILES	Ratio Ki (Homo sapiens)	Ratio Ki (Rattus norvegicus)	Ki [3]	inhibition (INH) [5]	inhibition (INH) [9]	inhibition (Armoracia rusticana)	also measured
CC1=C(C)C(=O)c2cc(C)ccc2C1=O							Ki [1]: 3 µM; Ki [2]: 6 µM
C#CCN[C@@H]1CCc2ccccc21	50	93					
C#CCN(C)[C@H](C)Cc1ccccc1	250	250					
O=C1C=CC(=O)c2ccccc21 [NAPHTHOQUINONE]			1.5 µM	Active	Active	inactive	Ki [4]: 7.7 µM; inhibition (INH) [6]: Active; Activity [7]: 50%; inhibition (INH) [8]: Active
CC1=CC(=O)c2ccccc2C1=O [MENADIONE]	60		0.4 µM	Active	Active	inactive	inhibition (INH) [10]: Active; Activity [11]: 50%; Ki [12]: 26 µM; inhibition (INH) [13]: Active
